# In patent publication US10617649B2 (Zhejiang Huahai Pharmaceutical Co., Ltd, priority 2016, dated 2020):
# Columns and labels:
# [1] = Stability of azacitidine solution as a function of the preparation temperature; format: physicochemical
# [2] = Content of bacterial endotoxin; details: excipient used in Example 3
# [3] = temperature of azacitidine solution higher than 6° C.
SMILES,"Stability of azacitidine in solution, compared between temperatures ([1]; solution prepared at 4-6° C. compared to 2-3° C.)",Stability of azacitidine in solution ([1]; temperature for preparing azacitidine solution controlled at 2-6° C.),"Content of azacitidine in solution [1, 3]","Related substances in solution [1, 3]",Content of bacterial endotoxin in excipient [2] [EU/g]
"Nc1ncn([C@@H]2O[C@H](CO)[C@@H](O)[C@H]2O)c(=O)n1 [azacitidine, Azacitidine]",the same stability,good stability,significantly decreased,significantly increased,
"OC[C@@H](O)[C@@H](O)[C@H](O)[C@H](O)CO [mannitol, Mannitol]",,,,,2.5
